Measured values reported in PubChem BioAssay AID1996.
Values after ≈ are worked out from the molar mass of the structure shown.

conditions: buffer; pH 7.4; 200.0 µM

Row | Compound | solubility kinetic
1 | O=C(CCc1ccccc1)Nc1sc2c(c1C(=O)O)CCCC2 | > 0.0494 mg/mL
2 | Cc1nc2nc(N)nc(OCc3ccccc3)c2nc1C | 0.0416 mg/mL (≈ 148 µM)
3 | CC(C)CN1CCN(Cc2cccn2-c2cccnc2)CC1CCO (stereo unspecified) | 0.0288 mg/mL (≈ 84.1 µM)
4 | CCn1c(Oc2ccccc2F)nc2c1c(=O)n(C)c(=O)n2C | > 0.0477 mg/mL
5 | COc1ccc2[nH]cc(CCNCc3cccnc3)c2c1.Cl | 0.0462 mg/mL
6 | CC(NC(=O)COC(=O)c1c[nH]c2ccccc12)c1ccccc1 (stereo unspecified) | 0.0462 mg/mL (≈ 143 µM)
7 | CC(NC(=O)COC(=O)c1ccc(N2CCCC2=O)cc1)c1ccc(F)cc1 (stereo unspecified) | 0.0082 mg/mL (≈ 21.3 µM)
8 | COc1ccc(CCNC(=O)c2csc3c2CCCC3)cc1 | 0.0021 mg/mL (≈ 6.66 µM)
9 | COC(=O)c1cc(CNC(=O)Cc2ccsc2)ccc1OC | 0.0475 mg/mL (≈ 149 µM)
10 | COc1ccc(C(=O)NCC(=O)OCc2ccccc2F)cc1 | 0.0476 mg/mL (≈ 150 µM)
11 | COc1ccc(CNC(=O)COC(=O)C2(C)CC2(Cl)Cl)cc1 (stereo unspecified) | > 0.0519 mg/mL
12 | Cc1cc(C)c(C(=O)COC(=O)c2c(C)noc2C)cc1C | 0.0071 mg/mL (≈ 23.6 µM)
13 | Cc1cc(OC(C)C(=O)NCC2CCCO2)cc(C)c1Cl (stereo unspecified) | 0.0407 mg/mL (≈ 131 µM)
14 | CC(C#N)(Cc1ccccc1)Nc1ccccc1 (stereo unspecified) | 0.0188 mg/mL (≈ 79.6 µM)
15 | CC#CC[N+](C)(C)CC(=O)c1ccccc1.[Br-] | > 0.0444 mg/mL
16 | O=C1NCCn2ccc(=O)cc21 | 0.0216 mg/mL (≈ 132 µM)
17 | O=c1[nH]cc(N2CCCCCC2)c(=O)[nH]1 | > 0.0314 mg/mL
18 | CCCC12CN3CC(C)(CN(C1)C3c1cccs1)C2=O (stereo unspecified) | 0.0391 mg/mL (≈ 135 µM)
19 | S=C1NC2(CCCC2)Nc2ccccc21 | 0.0325 mg/mL (≈ 149 µM)
20 | COC(=O)c1cc(OC)nc(OC)c1 | 0.003 mg/mL (≈ 15.2 µM)
21 | CN(CCc1ccccn1)Cc1ccc(Cl)c(Cl)c1 | 0.0292 mg/mL (≈ 98.9 µM)

Row | Compound | solubility kinetic
22 | CC1CC(=O)N(C)c2cc([N+](=O)[O-])ccc2N1 (stereo unspecified) | > 0.0353 mg/mL
23 | Cc1ccc(C(=O)NC2CCCCNC2=O)cc1 (stereo unspecified) | 0.0333 mg/mL (≈ 135 µM)
24 | Cc1cccc(Nc2nc(NCc3ccco3)nc(N)c2[N+](=O)[O-])c1 | < 0.0001 mg/mL
25 | O=S(=O)(NC1CCCCC1)c1cccc2nsnc12 | 0.0316 mg/mL (≈ 106 µM)
26 | CC(=O)Nc1c(-c2ccccc2)nc2ccc(Cl)cn12 | 0.0427 mg/mL (≈ 149 µM)
27 | Cl.O=C(O)CN1CCCCC1 | 0.0238 mg/mL
28 | NCCCNC(=O)c1ccc(/C=N/O)nc1 | > 0.0333 mg/mL
29 | c1coc(CN2CNc3nc4ccccc4n3C2)c1 | 0.0352 mg/mL (≈ 138 µM)
30 | CCOC(=O)N1CCN(c2nc3c(C)cccn3c(=O)c2C=O)CC1 | > 0.0517 mg/mL
31 | O=C(NC1=NCCS1)C1CCCCC1 | > 0.0318 mg/mL
32 | N/C(CC1CC1(Cl)Cl)=N\OC(=O)c1ccccc1 (stereo unspecified) | > 0.0431 mg/mL
33 | CCCNC(=S)Nc1cc2oc3ccccc3c2cc1OC | 0.0004 mg/mL (≈ 1.27 µM)
34 | CC(=O)N1CCN(c2nnc(-c3ccccc3)c3ccccc23)CC1 | > 0.0499 mg/mL
35 | CCn1c(CCNC(=O)c2ccco2)nc2ccccc21 | 0.0405 mg/mL (≈ 143 µM)
36 | CN(CC(=O)Nc1c(Cl)cccc1Cl)C(=O)c1cccn1C | > 0.051 mg/mL
37 | CCOC(=O)N1CCN(CCC(=O)Nc2cc(C)ccc2C)CC1 | > 0.05 mg/mL
38 | Cc1cccc(NC(=O)c2cccc(C(=O)Nc3cccc(C)c3)n2)c1 | < 0.0002 mg/mL
39 | CCCCNC(=NCc1cccc(C(F)(F)F)c1)Nc1ccccc1 | 0.0457 mg/mL (≈ 131 µM)
40 | O=c1[nH]cccc1-c1nc2cc(Cl)ccc2n1Cc1ccccc1 | 0.0057 mg/mL (≈ 17 µM)
41 | O=C(NCC1CC1)Nc1ccc(Cl)cc1 | 0.0189 mg/mL (≈ 84.1 µM)
42 | C[C@@H]1CC2(CCCC[N+]2(C)C)C[C@H]1C.[I-] | > 0.0485 mg/mL

Row | Compound | solubility kinetic
43 | COCC(C)NC(=S)N1CCN(c2ccccc2Cl)CC1 (stereo unspecified) | 0.0485 mg/mL (≈ 148 µM)
44 | Cc1cc(=O)[nH]c(SCc2cn3ccccc3n2)n1 | > 0.0408 mg/mL
45 | Cc1cccc2c1N(CCOc1ccccc1)C(=O)C2=O | 0.0034 mg/mL (≈ 12.1 µM)
46 | COc1ccc(CCNC(=O)C2Cc3ccccc3C(=O)O2)cc1 (stereo unspecified) | > 0.0488 mg/mL
47 | CCN(Cc1ccncc1)C(=O)c1cccc(S(=O)(=O)N2CCCCC2)c1 | > 0.0581 mg/mL
48 | O=C(COC(=O)Cc1c[nH]c2ccccc12)Nc1ccccc1C(F)(F)F | > 0.0565 mg/mL
49 | O=C(CSc1nccc(=O)[nH]1)c1ccco1 | > 0.0354 mg/mL
50 | O=C(OCC(=O)N1CCN(C(=O)c2ccco2)CC1)c1cc(F)c(F)cc1Cl | > 0.0619 mg/mL
51 | Cc1ccc(NC(=O)c2cccnc2C(=O)Nc2ccc(C)cc2)cc1 | 0.0019 mg/mL (≈ 5.5 µM)
52 | CCC1(c2ccc(F)cc2)NC(=O)N(CC(=O)Nc2ccc3c(c2)OCCO3)C1=O (stereo unspecified) | 0.016 mg/mL (≈ 38.7 µM)
53 | Cc1cnc(NC(=O)Cc2ccccc2F)s1 | 0.0034 mg/mL (≈ 13.6 µM)
54 | Cc1ccccc1OCC(O)CNC1CCCC1.Cl (stereo unspecified) | 0.0382 mg/mL
55 | COc1cccc(Nc2ccc([N+](=O)[O-])c3nonc23)c1 | 0.0052 mg/mL (≈ 18.2 µM)
56 | COc1ccc(N2C(=O)NC(=O)/C(=C\c3ccccc3[N+](=O)[O-])C2=O)cc1 | 0.0544 mg/mL (≈ 148 µM)
57 | CCOC(=O)c1c(C)[nH]c(C(=O)OCc2ccc(F)cc2)c1C | 0.002 mg/mL (≈ 6.26 µM)
58 | Cc1noc(C)c1COc1ccccc1C(=O)NC1CCC(C)CC1 (stereo unspecified) | > 0.0514 mg/mL
59 | N#Cc1cc2ccccc2nc1SCC(=O)NC1CC1 | 0.0032 mg/mL (≈ 11.3 µM)
60 | CN(CCc1ccccn1)c1ccc([N+](=O)[O-])cn1 | 0.0381 mg/mL (≈ 148 µM)
61 | COC(=O)c1ccc(C2C(C#N)=C(N)Oc3cc(O)ccc32)cc1 (stereo unspecified) | 0.0463 mg/mL (≈ 144 µM)
